Measurements reported in patent US20250099420A1, “SMALL MOLECULE MODULATORS OF GPR139 COMPLEX” (University of Florida Research Foundation, Incorporated, priority 2022, published 2025).
Like-named read-outs stand apart in the source and are kept apart here.

Tests used:
GPR139 = target: T1, GPR139 (Homo sapiens, UniProt Q6DWJ6); assay: GPR139 Agonist titration / agonist counterscreen assay (calcium detection, HEK-GPR139 cells); format: cell-based; set-up: expressed in transfected cells; host or cells: HEK Aequorin cells, Maxcyte transient transfection; conditions: GPR139 Agonist Activity; for EC50: read-out: EC50; for Averaged Max % Response (±St. Dev.): activity relative to known control
T1 sequence (Q6DWJ6 1-353): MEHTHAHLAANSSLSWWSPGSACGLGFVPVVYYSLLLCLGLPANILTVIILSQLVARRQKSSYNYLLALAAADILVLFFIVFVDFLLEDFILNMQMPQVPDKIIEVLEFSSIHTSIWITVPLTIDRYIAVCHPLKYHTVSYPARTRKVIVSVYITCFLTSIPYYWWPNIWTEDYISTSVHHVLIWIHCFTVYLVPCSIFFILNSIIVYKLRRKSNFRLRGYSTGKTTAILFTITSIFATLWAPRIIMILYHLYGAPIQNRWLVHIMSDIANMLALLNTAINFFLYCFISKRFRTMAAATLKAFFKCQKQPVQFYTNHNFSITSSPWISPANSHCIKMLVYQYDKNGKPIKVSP
Method: GPR activity was assessed using a calcium detection assay. […] Negative control samples were treated with DMSO. […] Intracellular calcium was measured using Calcium 5.

parental HEK cells = assay: HEK parental Agonist Counterscreen Assay (non-transfected cells); format: cell-based; conditions: for Averaged Max % Response (±St. Dev.): activity relative to known control
Text: The high control for the agonist counterscreen was Forskolin not acetylcholine.

[1] = HEK Agonist Activity section of Table 4 (parental HEK counterscreen)
[2] = values printed in E-notation without unit
[3] = Homo sapiens, HEK293, HEK Agonist Activity section of Table 4 (parental HEK counterscreen)

| Efficiency Ligand (GPR139) | Hill Slope (GPR139) | Lipophilic Efficiency (logD) (GPR139) | Lipophilic Efficiency (logP) (GPR139) | Averaged Max % Response (±St. Dev.) (GPR139) [%] | Lipophilic Efficiency (logD) (parental HEK cells; HEK Agonist Activity section) | Lipophilic Efficiency (logP) (parental HEK cells; HEK Agonist Activity section) | Lipophilic Efficiency (logD) (GPR139; based on logD) | Lipophilic Efficiency (logP) (GPR139; based on logP) | Hill Slope (GPR139; fitted dose-response curve) | Efficiency Ligand (GPR139; ligand efficiency) | EC50 (GPR139; [2]) [nM] | SMILES | EC50 (parental HEK cells; [1]) [µM] | Averaged Max % Response (±St. Dev.) (parental HEK cells; HEK Agonist Activity section) [%] | EC50 (parental HEK cells; [3]) [µM] | other results |
| --- | --- | --- | --- | --- | --- | --- | --- | --- | --- | --- | --- | --- | --- | --- | --- | --- |
| 0.30 | 0.69 | 4.01 | 4.01 | 75.38 ± 12.05 | 3.01 | 3.01 |  |  |  |  |  | COC(=O)C(CCSC)NC(=O)C1CC(Cc2ccc3c(c2)OCO3)=NO1 (stereo not drawn) [SR-01000193756] | > 14.1 | −12.55 ± 2.76 |  | EC50 (GPR139; HEK-GPR139 cells): 1400 nM |
|  |  |  |  | 101.61 ± 5.25 | 1.24 | 1.24 | 3.67 | 3.67 | 0.62 | 0.34 | 54.3 | CCC1(c2ccc(Cl)cc2)NC(=O)N(CC(=O)N2CC3(C)CC2CC(C)(C)C3)C1=O (stereo not drawn) [SR-01000045673] |  | 4.34 ± 4.74 | > 14.3 |  |
| 0.33 | 0.74 | 3.45 | 3.43 | 96.13 ± 10.69 | 2.25 | 2.23 |  |  |  |  |  | COc1ccc(Cl)cc1C(=O)NNC(=O)CCc1ccc([N+](=O)[O-])cc1 [SR-01000054340] |  | 20.66 ± 8.49 | > 14.2 |  |
| 0.36 | 1.08 | 2.91 | 2.91 | 88.51 ± 8.87 | 1.52 | 1.52 |  |  |  |  |  | Cc1cc(C)c2c(cnn2CC(=O)N2CCc3ccccc3C2)c1 [SR-01000154995] | > 14.1 | 41.69 ± 44.54 |  | EC50 (GPR139; HEK-GPR139 cells): 572 nM |
|  |  |  |  | 105.74 ± 4.40 | 1.25 | 1.25 | 3.09 | 3.09 | 1.05 | 0.39 | 205 | CCOc1ccc(C(=O)NCCc2ccc(F)cc2)cc1OCC [SR-01000243797] |  | 10.10 ± 12.81 | > 14.1 |  |
|  |  |  |  | 105.92 ± 4.10 | 2.87 | 2.87 | 5.32 | 5.31 | 0.77 | 0.43 | 50.5 | Cc1cccc(NC(=O)Cn2ncc3c2-c2ccccc2OC3)n1 [SR-01000135038] |  | 13.01 ± 4.86 | > 14.1 |  |
|  |  |  |  | 110.92 ± 4.82 | 2.23 | 2.23 | 4.10 | 4.10 | 0.58 | 0.39 | 189 | COc1ccc(CNC(=O)Nc2ccc(-c3cn[nH]c3)cc2)cc1.O=C(O)C(F)(F)F [SR-00000005347] | > 14.1 | 11.55 ± 3.19 |  |  |
|  |  |  |  | 91.59 ± 7.88 | 2.64 | 1.58 | 4.71 | 3.64 | 0.81 | 0.30 | 120 | CN1CC[C@H](Oc2cc(-c3cn[nH]c3)ccc2NC(=O)N(Cc2ccccc2)C2CC2)C1.O=C(O)C(F)(F)F.O=C(O)C(F)(F)F [SR-00000007518] | > 14.1 | 23.13 ± 2.30 |  |  |
|  |  |  |  | 89.43 ± 6.88 |  |  | 3.97 | 3.96 | 0.82 | 0.36 | 22 | O=C(NCC1Cc2cccc(-c3ccccn3)c2O1)c1ccc(-n2cccn2)cc1 (stereo not drawn) [SR-01000183606] |  |  |  | Lipophilic Efficiency (logD) (parental HEK cells; HEK Agonist Activity): 1.16; Lipophilic Efficiency (logP) (parental HEK cells; HEK Agonist Activity): 1.16; Averaged Max % Response (±St. Dev.) (parental HEK cells; HEK Agonist Activity): −9.57 ± 3.95%; EC50 (parental HEK cells; HEK Agonist Activity, parental non-transfected HEK cells): > 14.1 µM |
|  |  |  |  | 105.88 ± 16.21 | 4.10 | 2.51 | 6.30 | 4.72 | 0.34 | 0.45 |  | Cc1cc(CC(=O)N/C=C/c2cccc3ccccc23)n[nH]1 [SR-01000080408] |  | 71.97 ± 7.16 | 11.9 | Hill Slope (parental HEK cells; HEK Agonist Activity section): 1.95 |
| 0.27 |  | 2.66 | 2.66 | 121.63 ± 9.56 | 1.70 | 1.70 |  |  |  |  |  | C=C(CC1C(=O)CC(c2ccccc2)(c2ccccc2)C1=O)C(C)CC1=CC=CC1 (stereo not drawn) [SR-01000062305] |  | −4.71 ± 5.40 | > 14.8 |  |
| 0.24 | 1.19 | 5.00 | 3.11 | 81.04 ± 10.01 | 3.98 | 2.09 |  |  |  |  |  | COc1ccc2c(c1)C[C@H](C(=O)Nc1ccc(-c3cn[nH]c3)cc1OCCN1CCCC1)NC2.O=C(O)C(F)(F)F.O=C(O)C(F)(F)F.O=C(O)C(F)(F)F [SR-00000007044] | > 14.1 | 26.95 ± 5.80 |  | EC50 (GPR139; HEK-GPR139 cells): 1400 nM |
| 0.36 | 1.16 | 3.29 | 3.29 | 100.59 ± 15.12 | 1.76 | 1.75 |  |  |  |  |  | COc1cccc(CNC(=O)Nc2ccc(-c3ccncc3)cc2)c1.O=C(O)C(F)(F)F [SR-00000007266] | > 14.1 | 23.72 ± 3.44 |  | EC50 (GPR139; HEK-GPR139 cells): 408 nM |
|  |  |  |  | 114.68 ± 22.09 | 1.22 | 1.21 | 3.62 | 3.61 | 0.44 | 0.32 | 56.1 | CC(CCc1ccccc1)NC(=O)c1ccc2c(c1)C(Cc1ccccc1)C(=O)C[S+]2[O-] (stereo not drawn) [SR-01000129880] |  | 0.02 ± 5.29 | > 14.1 |  |
|  |  |  |  | 103.91 ± 10.30 | 2.25 | 2.21 | 4.04 | 3.99 | 0.77 | 0.36 | 231 | COc1ccc(C(=O)NNC(=O)COc2ccc(Cl)cc2Cl)cc1OC [SR-01000357814] |  | 7.60 ± 11.41 | > 14.1 |  |
|  |  |  |  | 101.07 ± 20.22 | 3.51 | 3.51 | 5.28 | 5.28 | 0.87 | 0.33 | 228 | CC12C=CC3(CN(Cc4ccccc4)C(=O)C3C1C(=O)NCc1ccco1)O2 (stereo not drawn) [SR-01000582958] | > 13.4 | 10.03 ± 5.09 |  |  |
| 0.29 | 0.69 | 3.27 | 3.22 | 66.69 ± 11.44 | 2.48 | 2.44 |  |  |  |  |  | COc1ccccc1NC(=O)C(=O)NNC(=O)COc1ccc(Br)cc1C [SR-01000325257] |  | −2.80 ± 2.96 | > 14.1 | EC50 (GPR139; HEK-GPR139 cells): 2300 nM |
|  |  |  |  | 122.23 ± 2.65 |  |  | 3.53 | 3.53 | 0.24 | 0.44 | 29.1 | Cc1ccc(SCC(=O)Nc2nnc(-c3ccccc3Cl)o2)cc1 [SR-01000021416] |  |  |  | Lipophilic Efficiency (logD) (parental HEK cells; HEK Agonist Activity): 0.84; Lipophilic Efficiency (logP) (parental HEK cells; HEK Agonist Activity): 0.84; Averaged Max % Response (±St. Dev.) (parental HEK cells; HEK Agonist Activity): 23.13 ± 4.18%; EC50 (parental HEK cells; Homo sapiens, HEK293, HEK Agonist Activity, parental non-transfected HEK cells): > 14.1 µM |
| 0.26 | 1.07 | 1.89 | 1.89 | 63.10 ± 2.62 | 1.05 | 1.05 |  |  |  |  |  | CCOC(=O)N1CCC2=C(CC(NC(=O)Cc3cccc4ccccc34)=C2C(C)=O)C1 [SR-01000011241] |  | 1.28 ± 10.93 | > 14.2 |  |
